Results: article PMC8899516, “Structure-Activity Relationship Studies of 4-((4-(2-fluorophenyl)piperazin-1-yl)methyl)-6-imino-N-(naphthalen-2-yl)-1,3,5-triazin-2-amine (FPMINT) Analogues as Inhibitors of Human Equilibrative Nucleoside Transporters” (Frontiers in Pharmacology, 2022)

System: ENT2
Assay: Western blotting of ENT2 protein expression
Assay type: cell-based, human
Conditions: 50 µM, 24 h or 48 h
Method: PK15NTD/ENT1 and PK15NTD/ENT2 cells were grown to confluence in 10-cm culture dishes and treated with 50 µM of compound 3c or an equivalent volume of a vehicle (0.5% DMSO) for 24 h or 48 h. The cells were washed thrice with ice-cold PBS. Total protein was extracted by cell lysis in a lysis buffer (5 mM sodium monophosphate, pH 8) with a protease inhibitor cocktail (Sigma, St Louis, MO, United States; 1:1,000 [v/v]). The protein content was measured by bicinchoninic acid assay. Protein samples were separated by 12.5% sodium dodecyl sulfate–polyacrylamide gel electrophoresis (SDS-PAGE) and blotted onto polyvinylidene difluoride (PVDF) membranes. […] The membranes were then again washed, and the bound secondary antibodies were detected using an enhanced chemiluminescence kit (Bio-Rad, Hercules, CA, United States). […] To semi-quantify the ENT1 and ENT2 protein levels, the same membranes were washed three times with a stripping buffer for 10 min at room temperature, and the protein expression level of β-actin was measured using monoclonal mouse anti-β-actin primary antibodies (1:3,000 [v/v] dilution in a blocking solution). […]
FIGURE 5 Effects of compound 3c on cytotoxicity and protein expressions of ENT1 and ENT2. […] Total ENT1 and ENT2 from whole-cell lysates were also detected for a comparison. β-actin served as an internal reference. […]

## Cc1cccc(Nc2nc(N)nc(CN3CCN(c4ccc(F)cc4)CC3)n2)c1 [Compound 3c]
  protein expression level of ENT2: unaltered
